Like-named read-outs stand apart in the source and are kept apart here. One block for each compound: values may come before it. Bridges are numbered along the chain shown (N, C = ends).
Columns and labels:
NPR2 guanylyl cyclase [1] = assay: cGMP production in chondrocytes of intact tibia growth plates (cGi500 FRET sensor imaging); format: cell-based, mouse; conditions: for cGMP increase (CFP/YFP emission ratio from cGi500) on perfusion of agonist: no FGF
Protocol: cGMP production in chondrocytes within intact growth plates was measured using tibias dissected from newborn mice (0- to 1-day-old mice) that globally expressed 1 or 2 copies of the cGi500 FRET sensor, as previously described ([27]). Tibias were dissected and cultured overnight on Millicell organotypic membranes (PICMORG50; MilliporeSigma) in BGJb medium (Thermo Fisher Scientific, catalog 12591-038) with 0.1% BSA (MP Biomedicals, catalog 103700), 100 units/mL of penicillin, and 100 μg/mL of streptomycin (Thermo Fisher Scientific, 15140-122). In preparation for imaging, each tibia was slit to remove the tissue overlying the growth plate. Where indicated, the tibia was incubated in LB-100, cantharidin, or control medium, followed by addition of FGF18 (0.5 μg/mL + 1 μg/mL heparin) or control medium containing heparin only. The tibia was then placed in a perfusion slide (ibidi USA, catalog 80186, special order with no adhesive), and the growth plate was imaged on the stage of a confocal microscope, as previously described ([27]).

NPR2 = NPR2 phosphorylation in primary rib chondrocyte cultures (Phos-tag gel electrophoresis, Western blot); format: cell-based, mouse; conditions: for NPR2 dephosphorylation in response to FGF: then FGF18 0.5 μg/mL 10 minutes
Protocol: Rib cages were dissected from newborn mice (0–2 days old) and trimmed to remove the skin, spinal cord, and soft tissue around the sternum and ribs. Nonchondrocyte tissue was digested away by incubating the rib cages in 2 mg/mL pronase (Roche, catalog 10165921001) in PBS for 1 hour in a shaking water bath at 37°C and was then incubated in 3 mg/mL collagenase D (Roche, catalog 11088866001) in medium for 1 hour. After washing, the rib cages were transferred to a dish with fresh collagenase D and incubated for 5–6 hours, with trituration at 2 hours, to release the chondrocytes. The isolated cells were passed through a 40 μm nylon cell strainer (Corning, catalog 431750), resuspended in DMEM/F12 medium (Thermo Fisher Scientific, catalog 11320-033) with 10% FBS (Thermo Fisher Scientific, catalog 10082-139), 100 units/mL of penicillin, and 100 μg/mL of streptomycin. The cells were plated in 35 mm tissue culture dishes, at a density corresponding to 1 newborn mouse per dish, and cultured for 3 days, at which point the cells were approximately 75%–90% confluent. They were then washed with PBS and incubated in serum-free medium for 18 hours. The cells were then incubated in LB-100 (10 μM), or control medium, followed by addition of FGF18 (0.5 μg/mL + 1 μg/mL heparin) or control medium containing heparin only.
At end of the incubation period, dishes were washed in PBS, and cells were lysed in 250 μL of 1% SDS containing 10 mM sodium fluoride, 1 μM microcystin-LR (Cayman Chemical, catalog 10007188), and protease inhibitor cocktail (Roche, catalog 04 693 159 001). Protein content was determined by a BCA assay (Pierce, catalog 23225). The protein yield per newborn mouse was approximately 200–300 μg.
Proteins were separated in a Phos-tag–containing gel, as previously described ([58]), except that chondrocyte lysates (30 μg protein) were used without immunoprecipitation. Phos-tag and protein size markers were obtained from Fujifilm Wako Pure Chemical (catalogs AAL-107 and 230-02461, respectively). For these studies, we used mice with HA-tagged NPR2 ([43]), and blots were probed with an antibody against the HA tag (Cell Signaling Technology, catalog 2367, 1:1000 dilution). The specificity of this antibody is validated in Supplemental Figure 3. Note that molecular weight markers are only approximate for Phos-tag gels.

Fgfr3^Y367C/+ mice = test system: Fgfr3^Y367C/+ mice; set-up: method as in PMID 23200862; conditions: cited from earlier work
Fgfr3^Y367C/+ femurs = assay: Ex vivo culture of fetal femurs, growth in length and area; set-up: species or system mouse; conditions: E16.5 Fgfr3^Y367C/+ femurs, 6-day culture; LB-100 10 μM, BMN-111 0.1 μM
Protocol: Femurs from E16.5 embryos were cultured ex vivo, as described previously ([32], [47]). The left femur was cultured in the presence of LB-100 (10 μM), BMN-111 (0.1 μM), or LB-100 (10 μM) + BMN-111 (0.1 μM) and was compared with the vehicle-treated right femur. The bone’s length was measured on day 0 (D0) and D6. Images were captured with an Olympus SZX12 stereo microscope and quantified using cellSens software (Olympus). The results were expressed as the increase in femur length or area (D6 – D0) in the presence or absence of LB-100, BMN-111, or LB-100 + BMN-111. Bone length and area were measured as shown in Supplemental Figure 5. To generate the graphs shown in Figure 3, the length or 2-dimensional area on D0 was subtracted from the length or area on D6 to calculate the amount of growth. These measurements of growth in drug-treated bones were divided by the mean values from corresponding measurements of control (vehicle-treated) bones; the graphs show the ratio of treated/control growth.

[2] = test system: growth plate chondrocytes of Fgfr3^Y367C/+ femurs; assay: Histology of growth plates of ex vivo cultured femurs (HES, COLX immunostaining); set-up: species or system mouse; conditions: 6-day culture, LB-100 10 μM, BMN-111 0.1 μM
Excerpt: After a 6-day culture period, fetal femur (E16.5) explants were fixed in 4% paraformaldehyde, decalcified with EDTA (0.4M), and embedded in paraffin. Serial 5 μm sections were stained with hematoxylin‑eosin‑safran (HES) reagent, using standard protocols. For immunohistochemical assessment, sections were labeled with the following antibodies and a Dako Envision Kit: anti-COLX (BIOCYC, catalog N.2031501005; 1:50 dilution), and anti–phosphorylated ERK1‑2 ([…]) (Cell Signaling Technology, catalog 4370; 1:100 dilution). Images were captured with an Olympus PD70-IX2-UCB microscope and quantified using cellSens software.
Mean areas of individual hypertrophic chondrocytes were measured from COLX-labeled sections, within a 166 μm wide × 76 μm high box positioned 50 μm from mineralization front (Supplemental Figure 6). The measurements were made manually using Fiji software and the freehand selection tool. […] We measured the total area occupied by chondrocytes within the whole growth plate and the area occupied by COLX^+ chondrocytes. The area for proliferating chondrocytes was calculated by subtracting the COLX^+ area from the whole growth plate area.

children with ACH = test system: children with ACH; set-up: method as in PMID 31269546, PMID 32891212; conditions: children 5–14 years of age with ACH, up to 42 months, phase 2 and 3 data; cited from earlier work
NPR2 guanylyl cyclase [3] = test system: NPR2 guanylyl cyclase; set-up: method as in PMID 29199951; conditions: 100 μM; cited from earlier work
[4] = molecular target: T1, recombinant PPP1CA (PPP1C) (Homo sapiens, UniProt P62136); assay: Phosphatase activity inhibition assay (DiFMUP or [32P]-phosphohistone substrate); format: biochemical
T1 construct: made in house; host or cells: E. coli BL-21
T1 sequence (P62136 whole entry): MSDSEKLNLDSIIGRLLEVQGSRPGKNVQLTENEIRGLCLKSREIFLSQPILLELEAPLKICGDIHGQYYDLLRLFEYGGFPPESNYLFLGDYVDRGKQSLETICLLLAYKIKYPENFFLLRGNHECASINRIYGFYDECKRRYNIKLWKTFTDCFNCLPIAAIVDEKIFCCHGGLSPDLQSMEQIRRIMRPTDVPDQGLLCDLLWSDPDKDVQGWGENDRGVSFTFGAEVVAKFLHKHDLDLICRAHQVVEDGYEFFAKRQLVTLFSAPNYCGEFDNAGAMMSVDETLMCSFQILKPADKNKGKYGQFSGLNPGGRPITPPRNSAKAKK
Protocol: The coding sequence of human PPP1CA was expressed as a maltose binding protein fusion in a BL-21 strain of E. coli and purified as previously described ([55]). Phosphohistone phosphatase assays were performed as previously described ([55], [56]). Briefly, LB-100, at the indicated concentrations, or vehicle control (H2O) was added to enzyme/buffer aliquots about 10 minutes prior to starting assays by the addition of [^32P]-phosphohistone substrate (to a final assay concentration of 300 nM incorporated phosphate). [^32P]-phosphohistone was prepared by the phosphorylation of bovine brain histone (MilliporeSigma, type-2AS) with cAMP-dependent protein kinase (PKA) in the presence of cAMP and [^32P]-ATP using established methods ([56], [57]). Phosphatase activity was measured by the quantitation of [^32P]-labeled orthophosphate liberated from the substrate using established protocols ([57]). 6,8-Difluoro-4-methylumbelliferyl phosphate–based (DiFMUP-based) inhibition assays were conducted as described ([56], [57]), in a 96-well format using DiFMUP (Invitrogen) (100 μM final assay concentration). IC50 values were calculated from a 10-point concentration/dose response curve by a 4-parameter logistic fit of the data, using 3–8 replicates per concentration.

PPP2C = test system: PPP2C; set-up: method as in PMID 30679389; conditions: reported previously, read-out: Phosphatase IC50 mean ± SE, PPP2C, cited from earlier work
PPP5C = test system: PPP5C; set-up: method as in PMID 30679389; conditions: reported previously, read-out: Phosphatase IC50 mean ± SE, PPP5C, cited from earlier work
[5] = substrate [32P]-labeled phosphohistone

Effect on cGMP increase in response to CNP perfusion (NPR2 guanylyl cyclase [1]; pretreatment 0.5 μg/mL FGF18 + 1 μg/mL heparin for 80 minutes, 0.1 μM CNP): suppressed the cGMP increase
Compound: FGF18: fibroblast growth factor 18 used to activate FGF receptor
NPR2 phosphorylation (NPR2; FGF18 0.5 μg/mL for 10 minutes): decrease in NPR2 phosphorylation

Compound: ANP: A-type natriuretic peptide, which activates the NPR1 guanylyl cyclase
cGMP increase (CFP/YFP emission ratio from cGi500) on perfusion of agonist (NPR2 guanylyl cyclase [1]; 0.1 μM agonist perfused across growth plate of newborn mouse tibia): did not increase cGMP

Compound: CCN(CC)/[N+]([O-])=N/O.CCNCC [DEA/NO]
cGMP increase (CFP/YFP emission ratio from cGi500) on perfusion of agonist (NPR2 guanylyl cyclase [1]; 10 μM perfused across growth plate of newborn mouse tibia): did not increase cGMP

Compound: (Cyc[23,39])H2N-PGQEHPNARKYKGANKKGLSKGCFGLKLDRIGSMSGLGC-OH (H-PGQEHPNARKYKGANKKGLSKGCFGLKLDRIGSMSGLGC-OH; disulfide 23-39) [BMN-111, protease-resistant CNP analog, NPR2 agonist]
Bone growth in mouse model of ACH (Fgfr3^Y367C/+ mice): increases bone growth
NPR2 phosphorylation (NPR2; 0.1 μM for 1 hour, independently of FGF treatment): some reduction in NPR2 phosphorylation
Increase in bone length, ratio treated/vehicle-treated control (Fgfr3^Y367C/+ femurs): 1.78
Increase of total bone and cartilage area, growth ratio treated/control (Fgfr3^Y367C/+ femurs): 1.51
Size of Fgfr3^Y367C/+ hypertrophic chondrocytes ([2]; proximal growth plate): increased the size
Increase of total proliferative growth plate area of the femur over vehicle ([2]; proximal plus distal growth plates): 20%
Annualized growth velocity (children with ACH): sustained increase in annualized growth velocity

Compound: C[C@@]12C(=O)OC(=O)[C@]1(C)[C@H]1CC[C@@H]2O1 [cantharidin, Cantharidin]
Effect on inactivation of NPR2 by FGF in growth plate chondrocytes (NPR2 guanylyl cyclase [3]): inhibits the inactivation of NPR2

Compound: CN1CCN(C(=O)C2C3CCC(O3)C2C(=O)O)CC1 (stereo not shown) [LB-100, 3-[4-methylpiperazine-1-carbonyl]-7-oxabicyclo[2.2.1]heptane-2-carboxylic acid]
CNP-induced cGMP increase in FGF-treated tibias (NPR2 guanylyl cyclase [1]; 1 μM preincubation 60 minutes before FGF18 (80 minutes)): no effect
Effectiveness in counteracting inactivation of NPR2 by FGF, compared with cantharidin (NPR2 guanylyl cyclase [1]; 5 μM LB-100 equivalent to 10 μM cantharidin): more effective than cantharidin
CNP-induced cGMP increase in FGF-treated tibias (NPR2 guanylyl cyclase [1]; 5 μM preincubation 60 minutes before FGF18 (80 minutes)): enhanced
CNP-induced cGMP increase in FGF-treated tibias (NPR2 guanylyl cyclase [1]; 10 μM preincubation 60 minutes before FGF18 (80 minutes)): enhanced
Chondrocyte morphology in the live growth plate (NPR2 guanylyl cyclase [1]; 10 μM, 2-hour incubation): no visible change in chondrocyte morphology
IC50 ([4]; 2 established assays with different substrates, read-out: IC50 for inhibition of PPP1C): < 2 µM
IC50 ([4]; substrate DiFMUP, read-out: Phosphatase IC50 mean ± SE, PPP1C): 1.8 ± 0.021 µM
IC50 ([4]; substrate [32P]-labeled phosphohistone, read-out: Phosphatase IC50 mean ± SE, PPP1C): 1.68 ± 0.13 µM
NPR2 dephosphorylation in response to FGF (NPR2; 10 μM preincubation 1 hour with BMN-111 0.1 μM present): counteracts the FGF-induced dephosphorylation
NPR2 dephosphorylation in response to FGF (NPR2; 10 μM preincubation 1 hour): only partial
Increase in bone length, ratio treated/vehicle-treated control (Fgfr3^Y367C/+ femurs): 1.30
Increase of total bone and cartilage area, growth ratio treated/control (Fgfr3^Y367C/+ femurs): 1.40
IC50 (PPP2C; substrate DiFMUP): 0.39 ± 0.013 µM
IC50 (PPP2C; [5]): 0.64 ± 0.037 µM
IC50 (PPP5C; substrate DiFMUP): 1.82 ± 0.093 µM
IC50 (PPP5C; [5]): 4.9 ± 0.29 µM

From publication PMC8262325, “Phosphatase inhibition by LB-100 enhances BMN-111 stimulation of bone growth” (JCI Insight, 2021)
